Reference: US20080234368A9, “Therapeutic compositions and methods of use” (Trustees of Dartmouth College, priority 1998, published 2008)
pIC50: −log10 of the molar value.

Experiments:
[1] = tested on: PGE2 production in primary macrophages; assay: Suppression of PGE2 production in primary macrophages (FIG. 14C); assay type: cell-based, mouse; details: levels as low as 10^−9 M; IFN-γ 5 ng/ml and LPS 5 ng/ml, 48 h
Protocol: FIG. 14(A) illustrates Western blots; primary mouse macrophages; IFN-γ, 10 ng/ml; LPS, 2 ng/ml were added to cultures together with triterpenoids or dexamethasone (concentrations shown as […]); cells were harvested at 12 h. FIG. 14(B) illustrates Northern blots, RAW 264.7 macrophage-like cell line. IFN-γ, 10 ng/ml; LPS, 1 ng/ml; TNF-α, 10 ng/ml, were added to cultures together with CDDO or dexamethasone. RNA prepared after 12 h; GAPDH used as a loading control. FIG. 14(C) illustrates suppression of production of NO and PGEF in primary macrophages. For NO studies, cells were treated with IFN-γ, 10 ng/ml, together with CDDO (M), dexamethasone (O), TP-82 (□), or oleanolic acid (A). After 48 h, supernatants were analyzed for NO by the Griess reaction. For PGEF studies, cells were treated with IFN-γ, 5 ng/ml, and LPS, 5 ng/ml, together with the same set of inhibitors. After 48 h, PGE was measured in supernatants by immunoassay. Control values (no inhibition) for NO and PGE2 were 4.7 nmol/[…] and 2.2 ng/ml/2×10^5 cells, respectively. FIGS. (14D) and (14E) illustrate (human colon myofibroblasts) ^18Co cells grown in MEM/10% FBS; other methods are the same as reported above for macrophages. FIG. 14(D) illustrates Northern blots showing dose-response for suppression of COX-2 mRNA after induction with IL-1β (30 pg/ml). CDDO was added together with IL-1. […]

[2] = tested on: IFN-γ-induced NO production in mouse macrophages; assay: Inhibition of IFN-γ induced NO production in mouse macrophages; assay type: cell-based; details: read-out: IC50, inhibition of IFN-γ induced NO production
Protocol: The inhibitory activities of these compounds and dexamethasone on IFN-γ induced NO production in mouse macrophages is shown below in Table 1. The following procedure for the assay ws used. Macrophages were harvested from female mice injected intraperitoneally four days previously with 4% thioglycollate. These cells were seeded in 96-well tissue culture plates and incubated with 4 ng/mL IFN-γ in the presence or absence of inhibitory test compounds. After 48 hours NO production (measured as nitrite by the Griess reaction) was determined. Full details of the assay are given in Ding et al., 1990; Bogdan et al., 1992.

[3] = tested on: 21-MT-1 ER negative breast carcinoma cells; assay: Inhibition of cell proliferation (3H-thymidine incorporation); assay type: cell-based, human; details: 3 or 4 days, 3H-thymidine 2 h
Protocol: (§1) All cells were obtained from ATCC, except as noted. They were grown under standard conditions in either DMEM, DMEM/F 12, or RPMI 1640 media plus 5-10% FBS. CDDO, over the dose range 10^−6 to 10^−10 M, was added to cultures at the time of seeding. Three or 4 days later, cells were treated with ^3H-thymidine for 2 h (12 h in the case of leukemia cells), and then incorporation was measured. “ER” means estrogen receptor.

[4] = tested on: MDA-MB-231 ER negative breast carcinoma cells; assay: as above; assay type: cell-based, human; details: 3 or 4 days, 3H-thymidine 2 h
Protocol: as §1

[5] = tested on: KG-1 acute myeloid leukemia cells; assay: as above; assay type: cell-based, human; details: 3 or 4 days, 3H-thymidine 12 h
Protocol: as §1

[6] = tested on: THP-1 monocytic leukemia cells; assay: as above; assay type: cell-based, human; details: 3 or 4 days, 3H-thymidine 12 h
Protocol: as §1

[7] = tested on: A2058 melanoma cells; assay: as above; assay type: cell-based, human; details: 3 or 4 days, 3H-thymidine 2 h
Protocol: as §1

[8] = tested on: rat hippocampal neurons; assay: Protection of hippocampal neurons from β-amyloid induced cell death, MTT assay; assay type: cell-based
Protocol: For the following examples, stock solutions of CDDO (0.01 M) were made in DMSO and aliquots frozen at −20° C. Serial dilutions were made in DMSO before addition to cell culture media. Primary rat microglia and hippocampal neurons were isolated and cultured as described by Flaris et al., 1993 and Ren and Flanders, 1996.
The roles of inflammatory mediators, as well as aberrant programs for cell survival and apoptosis, in the genesis of cancer and Alzheimer's Disease are now undergoing serious investigation (McGeer and McGeer, 1995; Merrill and Benveniste, 1996; Akama et al., 1998). CDDO was tested in this example as a suppressor of de novo formation of iNOS in cultured microglia (the resident macrophages of the brain), as well as its ability to protect cultured hippocampal neurons from cell death induced by β-amyloid. […] Thus, LPS (5 ng/ml) induced iNOS in primary microglial cultures and caused a 27-fold increase in production of NO within 18 h. Concomitant treatment of these cultures with CDDO at either 10^−6 or 10 ^−7 M inhibited this induction by 73% and 52%, respectively. We have also explored the possibility that CDDO can protect cultured hippocampal neurons from cell death induced by the peptide β-amyloid, since NO has been implicated (Akama et al., 1998) in the neurotoxic actions of this peptide which is central to the pathogenesis of Alzheimer's disease (Selkoe, 1997). Hippocampal neurons were isolated and cultured from 16 day rat embryos and then treated with CDDO for 24 h before adding the β-amyloid peptide fragment, amino acids 25-35, at a final concentration of 10 μM. This dosing with β-amyloid alone caused death of more than half of the neurons in the culture within 24 h, as measured by MTT assay.

CC1(C)CC[C@]2(C(=O)O)CC[C@]3(C)[C@H](C(=O)C=C4[C@@]5(C)C=C(C#N)C(=O)C(C)(C)[C@@H]5CC[C@]43C)[C@@H]2C1 [Compound 6, 2-cyano-3,12-dioxoolean-1,9-dien-28-oic acid]
inhibition of cumulative PGE2 production [1]: Significant inhibition | pIC50 [2]: 9.00 | pIC50 [3]: 6.70 | pIC50 [4]: 6.00 | pIC50 [5]: 6.70 | pIC50 [6]: 7.30 | pIC50 [7]: 6.70 | protection against β-amyloid induced cell death ([8]; CDDO 10^−7 M, 24 h pretreatment, β-amyloid 25-35 10 μM, 24 h): totally prevented this cell death | protection against β-amyloid induced cell death ([8]; CDDO 10^−8 M, 24 h pretreatment, β-amyloid 25-35 10 μM, 24 h): totally prevented this cell death | protection against β-amyloid induced cell death ([8]; doses as low as 10^−10 M): some protective activity
